The source of these data is ChEMBL document CHEMBL5365439, “Development of a Selective Peptide κ-Opioid Receptor Antagonist by Late-Stage Functionalization with Cysteine Staples” (J Med Chem, 2023).

SMILES strings stand for the structures. Calls of active or inactive are those of the source. The calls are words filed in the database; no cut-off is given here. Numbered stars: 1 amine (or outer) side, 2 acyl side, 3 side chain; on linkers, the order of the positions; unused ones are H or OH. Bridge positions count the residues as written; N and C are the ends. Square brackets hold non-standard residues; d marks the D form. Peptide text beside a SMILES is read from it. CH2COCH2 = O=C(C[*:1])C[*:2]; CH2 = C([*:1])[*:2]; Mpa = O=C(O)CCS

Data set [1] can be described thus: Stability in human serum assessed as degradation at 3 mg/ml measured after 15 mins by RP-HPLC analysis. Type of data set: ADME, cell-free.
In data set [2] the target is Kappa-type opioid receptor (Mus musculus) (UniProt P33534). The data set is described as follows: Antagonist activity at mouse KOR expressed in HEK293 cells coexpressing EGFP/beta-arrestin2 fused NanoLuc assessed as reduction in beta-arrestin2 recruitment at 10 uM preincubated with furimazine for 5 mins followed by peptide addition and measured for 30 mins by BRET assay. The format is functional, cell-based. In general terms: Activated receptors often draw arrestin, which recruitment assays turn into a signal.

The test system of data set [3] is Mus musculus. Briefly: In vivo antagonist activity at KOR in CD-1 mouse model of U50,488 induced acute thermal nociception at 10 mg/kg, sc pretreated for 24 hrs followed by U50,488 stimulation and measured after 30 to 60 mins by radiant heat tail flick assay. Conditions: time lower 24.5 hrs, time upper […]. The format is functional, organism-based. (In general: Hot-plate and tail-flick tests time the reaction to a heat stimulus.)

For data set [4], the target named is T1, Kappa-type opioid receptor (Mus musculus, UniProt P33534). The data set is described as follows: Displacement of [3H]diprenorphine from mouse KOR expressed in HEK293 cell membrane assessed as inhibition constant incubated for 1 hr by radioligand displacement assay. Type of data set: cell membranes. (Displacement assays read how much labelled ligand stays bound in the presence of the test substance.)

The target in data set [5] is Kappa-type opioid receptor (Mus musculus) (UniProt P33534). Briefly: Antagonist activity at mouse KOR expressed in HEK293 cells assessed as forskolin-induced adenylyl cyclase-dependent cAMP formation at 10 uM incubated for 30 mins by HTRF analysis. Type of data set: functional, cell-based. Conditions: filed as antagonist.
Data set [6] concerns Mus musculus. Briefly: In vivo antagonist activity at KOR in CD-1 mouse model of U50,488 induced acute thermal nociception at 20 mg/kg, sc pretreated for 15 mins followed by U50,488 stimulation and measured after 30 to 60 mins by radiant heat tail flick assay. Type of data set: functional, organism-based. Conditions: time 45-75 min.
In data set [7] the target is T1, Kappa-type opioid receptor. Briefly: Competitive antagonist activity at mouse KOR expressed in HEK293 cells at 0.3 to 10 uM preincubated for 30 mins followed by U50,488 addition and measured after 30 mins by fluorescence based schild regression analysis. Type of data set: functional, cell-based. Conditions: read-out: pA2 (converted).
In data set [8] the target is Kappa-type opioid receptor (Mus musculus) (UniProt P33534). The data set is described as follows: Antagonist activity at KOR in C57BL/6 mouse DRG neurons assessed as inhibition of U50,488 induced calcium mobilization at 1 to 10 uM preincubated with compound followed by U50,488 addition and measured for 12 mins by single cell calcium microfluorimetry analysis. Type of data set: functional, cell-based. Conditions: DRG neuron, filed as antagonist, dose 1-10 µM.

Data set [9] shares this target. Briefly: Antagonist activity at mouse KOR expressed in HEK293 cells coexpressing EGFP/beta-arrestin2 fused NanoLuc assessed as reduction in beta-arrestin2 recruitment by measuring residual BRET signal at 10 uM preincubated with furimazine for 5 mins followed by peptide addition and measured for 30 mins by BRET assay relative to control. The format is functional, cell-based. Conditions: filed as antagonist.

For data set [10], the target named is Delta-type opioid receptor (Mus musculus) (UniProt P32300). Briefly: Displacement of [3H]diprenorphine from mouse DOR expressed in HEK293 cell membrane at 10 uM incubated for 1 hr by radioligand displacement assay. Type of data set: cell membranes.
Data set [11] has as its target Mu-type opioid receptor (Mus musculus) (UniProt P42866). Briefly: Displacement of [3H]diprenorphine from mouse MOR expressed in HEK293 cell membrane at 10 uM incubated for 1 hr by radioligand displacement assay. The format is cell membranes.
In data set [12] the test system is Mus musculus. The data set is described as follows: In vivo antagonist activity at KOR in CD-1 mouse model assessed as reversal of U50,488 induced motor impairment by measuring increase in latency to fall at 20 mg/kg, sc pretreated for 15 mins followed by U50,488 stimulation and measured at 30 mins by rotarod assay. The format is functional, organism-based. Conditions: time 45.0 min.

The target of data set [13] is T1, Kappa-type opioid receptor. The data set is described as follows: Modulation of mouse KOR expressed in HEK293 cells assessed as inhibition of forskolin-induced adenylyl cyclase-dependent cAMP formation incubated for 30 mins by HTRF analysis. Type of data set: functional, cell-based.
In data set [14] the target is T1, Kappa-type opioid receptor. The data set is described as follows: Partial agonist activity at mouse KOR expressed in HEK293 cells assessed as inhibition of forskolin-induced adenylyl cyclase-dependent cAMP formation incubated for 30 mins by HTRF analysis. The format is functional, cell-based.

On to `CC[C@H](C)[C@H](NC(=O)[C@H](CCCN=C(N)N)NC(=O)[C@H](CCCN=C(N)N)NC(=O)[C@H](CC(C)C)NC(=O)[C@H](Cc1ccccc1)NC(=O)CNC(=O)CNC(=O)[C@@H](N)Cc1ccc(O)cc1)C(=O)N[C@@H](CCCN=C(N)N)C(=O)N1CCC[C@H]1C(=O)N[C@@H](CCCCN)C(=O)N[C@@H](CC(C)C)C(=O)N[C@@H](CCCCN)C(N)=O`, for which the Stability result in [1] is “Unstable”. The result in [2] was inactive.
Consider `Oc1ccc2c3c1O[C@H]1c4[nH]c5c(c4C[C@@]4(O)[C@@H](C2)N(CC2CC2)CC[C@]314)C[C@@]1(O)[C@H]2Cc3ccc(O)c4c3[C@@]1(CCN2CC1CC1)[C@H]5O4`, for which, in the data set on Mus musculus [3], the result was Active.
Regarding `CC(C)C[C@H](NC(=O)[C@H](CCCCN)NC(=O)[C@@H]1CCCN1C(=O)[C@H](CCCNC(=N)N)NC(=O)[C@@H]1CSCSCCC(=O)N[C@@H](Cc2ccc(O)cc2)C(=O)NCC(=O)NCC(=O)N[C@@H](Cc2ccccc2)C(=O)N[C@@H](CC(C)C)C(=O)N[C@@H](CCCNC(=N)N)C(=O)N[C@@H](CCCNC(=N)N)C(=O)N1)C(=O)N[C@@H](CCCCN)C(N)=O` ([Mpa]YGGFLRRCRPKLK-NH2; linker 1-9 via CH2), the inhibition constant Ki in [4] turned out to be 6.8 nM. Also, the result (in data set [5]; in the data set with Mus musculus [6]; in data set [8]; in the data set on Mus musculus [12]) was Active. Moreover, the Kb in [7] is 31.6 nM. In [9], the Activity worked out at 5%. Further, the outcome in data set [10] and in data set [11] was inactive.
As for `CC(C)C[C@H](NC(=O)[C@H](CCCCN)NC(=O)[C@@H]1CCCN1C(=O)[C@H](CCCNC(=N)N)NC(=O)[C@@H]1CSCC(=O)CSCCC(=O)N[C@@H](Cc2ccc(O)cc2)C(=O)NCC(=O)NCC(=O)N[C@@H](Cc2ccccc2)C(=O)N[C@@H](CC(C)C)C(=O)N[C@@H](CCCNC(=N)N)C(=O)N[C@@H](CCCNC(=N)N)C(=O)N1)C(=O)N[C@@H](CCCCN)C(N)=O` ([Mpa]YGGFLRRCRPKLK-NH2; linker 1-9 via CH2COCH2), the half-maximal effective concentration (EC50) in data set [13] is 740 nM. The inhibitory constant (Ki) in [4] is 32 nM. In addition, the Activity in data set [9] was found to be 25%. Also, the result in data set [10] and in [11] was inactive.
As for `CC(C)C[C@H](NC(=O)[C@H](CCCCN)NC(=O)[C@@H]1CCCN1C(=O)[C@H](CCCNC(=N)N)NC(=O)[C@@H]1CSSCCC(=O)N[C@@H](Cc2ccc(O)cc2)C(=O)NCC(=O)NCC(=O)N[C@@H](Cc2ccccc2)C(=O)N[C@@H](CC(C)C)C(=O)N[C@@H](CCCNC(=N)N)C(=O)N[C@@H](CCCNC(=N)N)C(=O)N1)C(=O)N[C@@H](CCCCN)C(=O)O` ([Mpa]YGGFLRRCRPKLK-OH; disulfide 1-9), the outcome in [2] was inactive.
In the case of `CC(C)C[C@H](NC(=O)[C@H](CCCCN)NC(=O)[C@@H]1CCCN1C(=O)[C@H](CCCNC(=N)N)NC(=O)[C@@H]1CSCSCCC(=O)N[C@@H](Cc2ccc(O)cc2)C(=O)NCC(=O)NCC(=O)N[C@@H](Cc2ccccc2)C(=O)N[C@@H](CC(C)C)C(=O)N[C@@H](CCCNC(=N)N)C(=O)N[C@@H](CCCNC(=N)N)C(=O)N1)C(=O)N[C@@H](CCCCN)C(=O)O` ([Mpa]YGGFLRRCRPKLK-OH; linker 1-9 via CH2), in [1], the Stability result is listed as “Unstable”. The Ki in data set [4] was found to be 77 nM. Moreover, the outcome in [5] and in data set [2] (filed as antagonist) was Active. The result in data set [10] and in data set [11] was inactive.
For `CC(C)C[C@H](NC(=O)[C@H](CCCCN)NC(=O)[C@@H]1CCCN1C(=O)[C@H](CCCNC(=N)N)NC(=O)[C@@H]1CSCC(=O)CSCCC(=O)N[C@@H](Cc2ccc(O)cc2)C(=O)NCC(=O)NCC(=O)N[C@@H](Cc2ccccc2)C(=O)N[C@@H](CC(C)C)C(=O)N[C@@H](CCCNC(=N)N)C(=O)N[C@@H](CCCNC(=N)N)C(=O)N1)C(=O)N[C@@H](CCCCN)C(=O)O` ([Mpa]YGGFLRRCRPKLK-OH; linker 1-9 via CH2COCH2), the Stability entry in data set [1] is “Unstable”. For the same molecule, the Ki in [4] stood at 91 nM. Besides, in data set [14], the EC50 came out at 270 nM. Besides, the result in data set [10] and in data set [11] was inactive. The outcome in data set [2] (filed as antagonist) was Active.
`CC[C@H](C)[C@@H]1NC(=O)[C@H](CCCNC(=N)N)NC(=O)[C@H](CCCNC(=N)N)NC(=O)[C@H](CC(C)C)NC(=O)[C@H](Cc2ccccc2)NC(=O)CNC(=O)CNC(=O)[C@H](Cc2ccc(O)cc2)NC(=O)CCSCSC[C@@H](C(=O)N[C@@H](CCCCN)C(=O)N[C@@H](CC(C)C)C(=O)N[C@@H](CCCCN)C(N)=O)NC(=O)[C@H](CCCNC(=N)N)NC1=O` ([Mpa]YGGFLRRIRCKLK-NH2; linker 1-11 via CH2): the result in [10] and in data set [11] was inactive.
As for `CC[C@H](C)[C@@H]1NC(=O)[C@H](CCCNC(=N)N)NC(=O)[C@H](CCCNC(=N)N)NC(=O)[C@H](CC(C)C)NC(=O)[C@H](Cc2ccccc2)NC(=O)CNC(=O)CNC(=O)[C@H](Cc2ccc(O)cc2)NC(=O)CCSCSC[C@@H](C(=O)N[C@@H](CCCCN)C(=O)N[C@@H](CC(C)C)C(=O)N[C@@H](CCCCN)C(=O)O)NC(=O)[C@H](CCCNC(=N)N)NC1=O` ([Mpa]YGGFLRRIRCKLK-OH; linker 1-11 via CH2), the Stability entry in data set [1] is “Unstable”. Also, the result in data set [5] and in data set [2] (filed as antagonist) was Active. Further, the outcome in data set [10] and in data set [11] was inactive.
On to `CC[C@H](C)[C@@H]1NC(=O)[C@H](CCCNC(=N)N)NC(=O)[C@H](CCCNC(=N)N)NC(=O)[C@H](CC(C)C)NC(=O)[C@H](Cc2ccccc2)NC(=O)CNC(=O)CNC(=O)[C@H](Cc2ccc(O)cc2)NC(=O)CCSCC(=O)CSC[C@@H](C(=O)N[C@@H](CCCCN)C(=O)N[C@@H](CC(C)C)C(=O)N[C@@H](CCCCN)C(=O)O)NC(=O)[C@H](CCCNC(=N)N)NC1=O` ([Mpa]YGGFLRRIRCKLK-OH; linker 1-11 via CH2COCH2), for which the result in data set [2] was inactive.

The Ki is the dissociation constant of the complex between target and ligand, obtained from inhibition or displacement. One may read the EC50 as the concentration giving half of the maximal effect.
